# Assays:
# [1] = FRAP (ferric reducing antioxidant power) assay
# Method: (§1) The FRAP (ferric reducing antioxidant power) assay was carried out as described by Zengin et al.[38]. The sample solution (0.1 ml) was added to the premixed FRAP reagent (2 ml) containing acetate buffer (0.3 M, pH 3.6), 2,4,6-tris(2-pyridyl)-s-triazine (10 mM) in 40 mM HCl, and ferric chloride (20 mM) in a ratio of 10/1/1 (v/v/v). The absorbance of the sample was subsequently recorded at 593 nm after 30 min incubation at room temperature. Both results were expressed as EC50 values, using trolox as a reference drug.
# [2] = Cupric ion reducing activity (CUPRAC)
# Method: The cupric ion reducing activity (CUPRAC) was determined according to the method of Zengin et al.[38]. The sample solution (0.5 ml) was added to a premixed reaction mixture containing CuCl2 (1 ml, 10 mM), neocuproine (1 ml, 7.5 mM), and NH4Ac buffer (1 ml, 1 M, pH 7.0). Similarly, a blank was prepared by adding the sample solution (0.5 ml) to a premixed reaction mixture (3 ml) without CuCl2. The absorbances of the sample and blank were subsequently recorded at 450 nm after 30 min incubation at room temperature. The absorbance of the blank was subtracted from that of the sample.
# as §1
# [3] = ABTS radical cation scavenging activity
# Method: (§2) The scavenging activity of the compounds on the ABTS radical cation [ABTS,2,2′-azino-bis(3-ethylbenzothiazoline)-6-sulphonic acid] was measured according to the method of Zengin et al.[37] with slight modification. Briefly, ABTS^+ was produced directly by reacting a 7 mM ABTS solution with 2.45 mM potassium persulphate and allowing the mixture to incubate for 12–16 h in the dark at room temperature. Prior to initiating the assay, the ABTS solution was diluted with methanol to an absorbance of 0.700 ± 0.02 at 734 nm. The sample solution (1 ml) was added to the ABTS^+ solution (2 ml) and mixed, and the sample absorbance was recorded at 734 nm after 30 min incubation at room temperature. The corresponding IC50 value, which is the effective concentration at which 50% of DPPH/ABTS radicals are scavenged, was calculated for each compound and trolox, as a reference drug.
# [4] = Phosphomolybdenum assay (PhosphoMo), total antioxidant activity; conditions: concentration at which absorbance was 0.5
# Method: The total antioxidant activity of the compounds was evaluated by phosphomolybdenum method according to Zengin et al.[35]. The sample solution (0.3 ml) was combined with 3 ml of reagent solution (0.6 M sulphuric acid, 28 mM sodium phosphate, and 4 mM ammonium molybdate) and the absorbance was recorded at 695 nm after 90 min incubation at 95 °C. The EC50, which is the effective concentration at which the absorbance was 0.5, was calculated for each compound and trolox, as a reference drug.
# [5] = DPPH radical scavenging activity
# Method: The radical scavenging effect of the compounds using the 1,1-diphenyl-2-picrylhydrazyl (DPPH) radical was estimated according to Zengin et al.[36]. The sample solution (1 ml) was added to 4 ml of a 0.004% solution of DPPH in methanol. The sample absorbance was recorded at 517 nm after 30 min incubation at room temperature in the dark.
# as §2
# [6] = Metal chelating activity on ferrous ions; conditions: ferrozine
# Method: Metal chelating activity on ferrous ions was evaluated by the method previously described. Briefly, the sample solution (2 ml) was added to FeCl2 solution (0.05 ml, 2 mM). The reaction was initiated by the addition of 5 mM ferrozine (0.2 ml). Similarly, a blank was prepared by adding the sample solution (2 ml) to FeCl2 solution (0.05 ml, 2 mM) and water (0.2 ml) without ferrozine. Then, the sample and blank absorbance were recorded at 562 nm after incubation for 10 min at room temperature. The absorbance of the blank was subtracted from that of the sample. EDTA was used as a positive control and this property was expressed as IC50 value for each compound.
SMILES,melting point [°C],EC50 [1] [mM],EC50 [2] [mM],IC50 [3] [mM],EC50 [4] [mM],IC50 [5] [mM],IC50 [6] [mM]
"CC(=NNc1nc(-c2cccc([N+](=O)[O-])c2)cs1)c1cccnc1 [Compound 20, 1-(4-(3-Nitrophenyl)thiazol-2-yl)-2-(1-(pyridin-3-yl)ethylidene)hydrazine]",–,0.32 ± 0.02,0.42 ± 0.02,1.04 ± 0.01,1.77 ± 0.07,1.29 ± 0.01,> 5
"O=[N+]([O-])c1cccc(-c2csc(NN=Cc3ccccc3[N+](=O)[O-])n2)c1 [Compound 8, 1-(2-Nitrobenzylidene)-2-(4-(3-nitrophenyl)thiazol-2-yl)hydrazine]",228 to 230,0.47 ± 0.04,0.44 ± 0.02,1.04 ± 0.01,1.7 ± 0.05,1.47 ± 0.01,> 5
"CC(=NNc1nc(-c2cccc([N+](=O)[O-])c2)cs1)c1ccncc1 [Compound 21, 1-(4-(3-Nitrophenyl)thiazol-2-yl)-2-(1-(pyridin-4-yl)ethylidene)hydrazine]",–,0.27 ± 0.01,0.46 ± 0.02,1.04 ± 0.01,4.48 ± 0.18,1.34 ± 0.02,> 5
"O=[N+]([O-])c1cccc(-c2csc(NN=Cc3cccc4ccccc34)n2)c1 [Compound 28, 1-(Naphthalen-1-ylmethylene)-2-(4-(3-nitrophenyl)thiazol-2-yl)hydrazine]",212 to 214,0.41 ± 0.01,0.51 ± 0.03,1.05 ± 0.01,4.93 ± 0.83,1.3 ± 0.01,> 5
"CC(=NNc1nc(-c2cccc([N+](=O)[O-])c2)cs1)c1ccccn1 [Compound 19, 1-(4-(3-Nitrophenyl)thiazol-2-yl)-2-(1-(pyridin-2-yl)ethylidene)hydrazine]",–,0.38 ± 0.02,0.51 ± 0.01,1.04 ± 0.01,2.64 ± 0.34,1.36 ± 0.01,> 5
"CC(=NNc1nc(-c2cccc([N+](=O)[O-])c2)cs1)c1ccc(Cl)s1 [Compound 6, 1-(1-(5-Chlorothiophen-2-yl)ethylidene)-2-(4-(3-nitrophenyl)thiazol-2-yl)hydrazine]",227 to 229,0.62 ± 0.07,0.49 ± 0.01,1.08 ± 0.01,1.25 ± 0.05,1.18 ± 0.01,> 5
"O=[N+]([O-])c1cccc(-c2csc(NN=Cc3ccncc3)n2)c1 [Compound 18, 1-(4-(3-Nitrophenyl)thiazol-2-yl)-2-(pyridin-4-ylmethylene)hydrazine]",–,0.35 ± 0.01,0.58 ± 0.01,1.04 ± 0.01,4.7 ± 0.97,1.37 ± 0.01,> 5
"Cc1c(C)c2c(c(C)c1O)CCC(C)(C(=O)O)O2 (stereo not shown) [Trolox, trolox, reference compound]",–,0.16 ± 0.01,0.24 ± 0.02,0.66 ± 0.02,1.13 ± 0.05,0.4 ± 0.01,–
"CC(=NNc1nc(-c2cccc([N+](=O)[O-])c2)cs1)c1cnccn1 [Compound 22, 1-(4-(3-Nitrophenyl)thiazol-2-yl)-2-(1-(pyrazin-2-yl)ethylidene)hydrazine]",243 to 245,0.48 ± 0.04,0.91 ± 0.02,1.04 ± 0.01,1.28 ± 0.03,1.34 ± 0.01,3.86 ± 0.29
"O=[N+]([O-])c1cccc(-c2csc(NN=Cc3ccccn3)n2)c1 [Compound 16, 1-(4-(3-Nitrophenyl)thiazol-2-yl)-2-(pyridin-2-ylmethylene)hydrazine]",–,0.51 ± 0.02,0.53 ± 0.02,1.06 ± 0.02,1.13 ± 0.01,1.32 ± 0.01,> 5
"O=C(O)CN(CCN(CC(=O)O)CC(=O)O)CC(=O)O [EDTA, reference compound]",–,–,–,–,–,–,0.02 ± 0.001
"CC(=NNc1nc(-c2cccc([N+](=O)[O-])c2)cs1)c1cccc2ccccc12 [Compound 29, 1-(1-(Naphthalen-1-yl)ethylidene)-2-(4-(3-nitrophenyl)thiazol-2-yl)hydrazine]",226 to 228,0.53 ± 0.02,0.46 ± 0.01,1.04 ± 0.01,9.39 ± 0.31,1.42 ± 0.01,> 5
"O=[N+]([O-])c1cccc(-c2csc(NN=Cc3ccccc3)n2)c1 [Compound 7, 1-Benzylidene-2-(4-(3-nitrophenyl)thiazol-2-yl)hydrazine]",193 to 195,0.66 ± 0.04,0.66 ± 0.01,1.04 ± 0.01,1.29 ± 0.16,1.38 ± 0.01,> 5

# Now from value to compound, other results behind:
melting point [°C],SMILES,EC50 [1] [mM],EC50 [2] [mM],IC50 [3] [mM],EC50 [4] [mM],IC50 [5] [mM],IC50 [6] [mM]
215 to 217,CCC(=NNc1nc(-c2cccc([N+](=O)[O-])c2)cs1)c1ccccc1,–,–,–,–,–,–
253 to 255,O=[N+]([O-])c1cccc(-c2csc(NN=Cc3c[nH]c4ccccc34)n2)c1,–,–,–,–,–,–
242 to 244,CC(=NNc1nc(-c2cccc([N+](=O)[O-])c2)cs1)c1ccc2c(c1)OCCO2,–,–,–,–,–,–
222 to 224,O=[N+]([O-])c1cccc(C=NNc2nc(-c3cccc([N+](=O)[O-])c3)cs2)c1,–,–,–,–,–,–
228 to 230,CC(=NNc1nc(-c2cccc([N+](=O)[O-])c2)cs1)c1cc2ccccc2o1,–,–,–,–,–,–
152 to 154,CC(=NNc1nc(-c2cccc([N+](=O)[O-])c2)cs1)c1ccc2ccccc2c1,–,–,–,–,–,–
166 to 168,O=[N+]([O-])c1cccc(-c2csc(NN=C(c3ccccc3)c3ccccc3)n2)c1,–,–,–,–,–,–
283 to 285,CC(=NNc1nc(-c2cccc([N+](=O)[O-])c2)cs1)c1ccc(C(C)=NNc2nc(-c3cccc([N+](=O)[O-])c3)cs2)cc1,–,–,–,–,–,–
183 to 185,CC(=NNc1nc(-c2cccc([N+](=O)[O-])c2)cs1)c1cc2ccccc2oc1=O,–,–,–,–,–,–
209 to 211,CC(=NNc1nc(-c2cccc([N+](=O)[O-])c2)cs1)c1c[nH]c2ccccc12,–,–,–,–,–,–
214 to 216,CC(=NNc1nc(-c2cccc([N+](=O)[O-])c2)cs1)c1cccc([N+](=O)[O-])c1,–,–,–,–,–,–
255 to 256,O=[N+]([O-])c1cccc(-c2csc(NN=Cc3ccc4c(c3)OCO4)n2)c1,–,–,–,–,–,–
258 to 260,CC(=NNc1nc(-c2cccc([N+](=O)[O-])c2)cs1)c1ccc([N+](=O)[O-])cc1,–,–,–,–,–,–
